One assay deals with EGFR del19/C797S (Homo sapiens, UniProt P00533, C797S/DEL746-750). Description: Biochemical EGFR kinase assay (Lance Ultra TR-FRET), double mutant del19/C797S. The procedure, abridged: (§1)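 In this biochemical assay, phosphorylation after a one-hour room-temperature reaction was detected with europium-labelled anti-phosphopeptide antibody at 2 nM final concentration.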
A general note: Time-resolved FRET reads energy transfer from a long-lived donor to a nearby acceptor.

The next assay has as its target EGFR wildtype (WT) (Homo sapiens, UniProt P00533). The assay is described as follows: Biochemical EGFR kinase assay (Lance Ultra TR-FRET), wildtype. The gist of the method: as §1
Another assay concerns the target EGFR L858R/T790M/C797S (Homo sapiens, UniProt P00533, C797S/L858R/T790M). Description: Biochemical EGFR kinase assay (Lance Ultra TR-FRET), triple mutant L858R/T790M/C797S. The procedure, abridged: as §1
In the next assay the target is EGFR del19/T790M/C797S (Homo sapiens, UniProt P00533, C797S/DEL746-750/T790M). The assay is described as follows: Biochemical EGFR kinase assay (Lance Ultra TR-FRET), triple mutant del19/T790M/C797S. The procedure, abridged: as §1
Sequence of EGFR del19/T790M/C797S (P00533 with tags, fused parts or gaps DEL746-750/T790M/C797S): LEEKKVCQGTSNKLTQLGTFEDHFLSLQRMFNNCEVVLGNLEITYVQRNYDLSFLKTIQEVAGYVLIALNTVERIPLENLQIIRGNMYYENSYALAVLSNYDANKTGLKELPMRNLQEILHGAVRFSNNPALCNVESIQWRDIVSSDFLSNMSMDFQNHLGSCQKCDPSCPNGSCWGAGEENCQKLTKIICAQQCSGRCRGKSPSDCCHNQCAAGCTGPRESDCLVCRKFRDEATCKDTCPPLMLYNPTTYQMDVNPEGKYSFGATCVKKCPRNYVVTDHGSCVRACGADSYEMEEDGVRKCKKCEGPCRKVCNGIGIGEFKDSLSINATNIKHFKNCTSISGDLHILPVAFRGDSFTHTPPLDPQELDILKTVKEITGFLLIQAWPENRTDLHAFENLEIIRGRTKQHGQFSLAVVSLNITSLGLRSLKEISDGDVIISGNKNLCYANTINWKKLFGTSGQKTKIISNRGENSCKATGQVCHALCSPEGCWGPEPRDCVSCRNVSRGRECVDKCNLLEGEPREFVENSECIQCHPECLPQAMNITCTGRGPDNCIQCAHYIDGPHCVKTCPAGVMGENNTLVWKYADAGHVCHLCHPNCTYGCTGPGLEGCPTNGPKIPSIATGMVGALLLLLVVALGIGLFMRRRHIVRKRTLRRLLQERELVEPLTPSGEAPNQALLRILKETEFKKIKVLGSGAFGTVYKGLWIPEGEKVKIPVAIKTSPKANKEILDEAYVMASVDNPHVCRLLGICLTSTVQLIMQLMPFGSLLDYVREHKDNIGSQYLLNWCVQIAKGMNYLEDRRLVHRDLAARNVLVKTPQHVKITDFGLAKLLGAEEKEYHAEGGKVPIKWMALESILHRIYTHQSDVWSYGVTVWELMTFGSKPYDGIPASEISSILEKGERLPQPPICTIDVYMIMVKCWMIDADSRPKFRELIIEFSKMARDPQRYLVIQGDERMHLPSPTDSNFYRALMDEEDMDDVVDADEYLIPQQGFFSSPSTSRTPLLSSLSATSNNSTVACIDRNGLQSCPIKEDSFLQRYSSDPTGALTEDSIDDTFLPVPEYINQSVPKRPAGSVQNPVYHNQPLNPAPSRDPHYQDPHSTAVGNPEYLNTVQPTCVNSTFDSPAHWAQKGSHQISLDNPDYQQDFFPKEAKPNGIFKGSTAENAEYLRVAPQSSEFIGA
A further assay deals with EGFR L858R/C797S (Homo sapiens, UniProt P00533, C797S/L858R). Description: Biochemical EGFR kinase assay (Lance Ultra TR-FRET), double mutant L858R/C797S. The gist of the method: as §1
Sequence of EGFR L858R/C797S (P00533 25-1210 C797S/L858R): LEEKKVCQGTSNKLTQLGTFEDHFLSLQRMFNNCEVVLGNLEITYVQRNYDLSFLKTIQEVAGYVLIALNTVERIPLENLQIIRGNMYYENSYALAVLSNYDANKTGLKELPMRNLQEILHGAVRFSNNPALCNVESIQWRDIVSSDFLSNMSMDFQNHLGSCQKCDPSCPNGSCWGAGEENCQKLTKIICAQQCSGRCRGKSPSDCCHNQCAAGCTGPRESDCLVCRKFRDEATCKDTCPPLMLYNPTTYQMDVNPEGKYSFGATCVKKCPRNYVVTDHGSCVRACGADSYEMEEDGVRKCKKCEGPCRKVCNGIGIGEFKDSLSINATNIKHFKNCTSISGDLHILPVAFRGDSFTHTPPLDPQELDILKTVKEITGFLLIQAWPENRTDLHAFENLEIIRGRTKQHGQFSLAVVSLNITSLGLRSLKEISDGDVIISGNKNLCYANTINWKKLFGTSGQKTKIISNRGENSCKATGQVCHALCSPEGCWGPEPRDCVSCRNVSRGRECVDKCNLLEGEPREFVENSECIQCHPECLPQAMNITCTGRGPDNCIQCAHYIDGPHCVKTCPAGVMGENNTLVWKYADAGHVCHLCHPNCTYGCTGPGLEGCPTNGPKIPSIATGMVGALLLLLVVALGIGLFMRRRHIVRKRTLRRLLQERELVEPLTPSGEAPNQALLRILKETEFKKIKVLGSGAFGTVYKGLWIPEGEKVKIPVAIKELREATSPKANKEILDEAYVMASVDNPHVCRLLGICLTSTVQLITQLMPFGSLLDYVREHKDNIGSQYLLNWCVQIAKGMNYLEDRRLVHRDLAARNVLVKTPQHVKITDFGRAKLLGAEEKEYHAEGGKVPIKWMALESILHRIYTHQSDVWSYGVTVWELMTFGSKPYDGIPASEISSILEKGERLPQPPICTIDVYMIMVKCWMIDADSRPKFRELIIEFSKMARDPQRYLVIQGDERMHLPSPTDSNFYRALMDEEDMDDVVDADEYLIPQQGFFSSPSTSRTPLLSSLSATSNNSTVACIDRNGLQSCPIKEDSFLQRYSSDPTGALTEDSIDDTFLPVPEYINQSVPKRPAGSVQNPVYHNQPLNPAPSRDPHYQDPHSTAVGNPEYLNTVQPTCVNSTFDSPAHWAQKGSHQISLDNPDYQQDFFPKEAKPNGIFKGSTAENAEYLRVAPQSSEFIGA
The mark [1] stands for this setting: IC50 del19/C797S (nM) 100 μM ATP, 100 μM ATP.
[2] abbreviates: Km ATP, read-out: IC50 del19/C797S (nM) Km ATP.
Setting [3] is: IC50 WT (nM) 100 μM ATP, 100 μM ATP.
The mark [4] stands for this setting: Km ATP, read-out: IC50 WT (nM) Km ATP.
The mark [5] stands for this setting: IC50 L858R/T790M/C797S (nM) 100 μM ATP, 100 μM ATP.
The mark [6] stands for this setting: Km ATP, read-out: IC50 L858R/T790M/C797S (nM) Km ATP.
Setting [7] is: IC50 del19/T790M/C797S (nM) 100 μM ATP, 100 μM ATP.
The mark [8] stands for this setting: Km ATP, read-out: IC50 del19/T790M/C797S (nM) Km ATP.
[9] abbreviates: IC50 L858R/C797S (nM) 100 μM ATP, 100 μM ATP.
The mark [10] stands for this setting: Km ATP, read-out: IC50 L858R/C797S (nM) Km ATP.

Like-named read-outs stand apart in the source and are kept apart here.

Sequence of EGFR del19/C797S (P00533 with tags, fused parts or gaps DEL746-750/C797S): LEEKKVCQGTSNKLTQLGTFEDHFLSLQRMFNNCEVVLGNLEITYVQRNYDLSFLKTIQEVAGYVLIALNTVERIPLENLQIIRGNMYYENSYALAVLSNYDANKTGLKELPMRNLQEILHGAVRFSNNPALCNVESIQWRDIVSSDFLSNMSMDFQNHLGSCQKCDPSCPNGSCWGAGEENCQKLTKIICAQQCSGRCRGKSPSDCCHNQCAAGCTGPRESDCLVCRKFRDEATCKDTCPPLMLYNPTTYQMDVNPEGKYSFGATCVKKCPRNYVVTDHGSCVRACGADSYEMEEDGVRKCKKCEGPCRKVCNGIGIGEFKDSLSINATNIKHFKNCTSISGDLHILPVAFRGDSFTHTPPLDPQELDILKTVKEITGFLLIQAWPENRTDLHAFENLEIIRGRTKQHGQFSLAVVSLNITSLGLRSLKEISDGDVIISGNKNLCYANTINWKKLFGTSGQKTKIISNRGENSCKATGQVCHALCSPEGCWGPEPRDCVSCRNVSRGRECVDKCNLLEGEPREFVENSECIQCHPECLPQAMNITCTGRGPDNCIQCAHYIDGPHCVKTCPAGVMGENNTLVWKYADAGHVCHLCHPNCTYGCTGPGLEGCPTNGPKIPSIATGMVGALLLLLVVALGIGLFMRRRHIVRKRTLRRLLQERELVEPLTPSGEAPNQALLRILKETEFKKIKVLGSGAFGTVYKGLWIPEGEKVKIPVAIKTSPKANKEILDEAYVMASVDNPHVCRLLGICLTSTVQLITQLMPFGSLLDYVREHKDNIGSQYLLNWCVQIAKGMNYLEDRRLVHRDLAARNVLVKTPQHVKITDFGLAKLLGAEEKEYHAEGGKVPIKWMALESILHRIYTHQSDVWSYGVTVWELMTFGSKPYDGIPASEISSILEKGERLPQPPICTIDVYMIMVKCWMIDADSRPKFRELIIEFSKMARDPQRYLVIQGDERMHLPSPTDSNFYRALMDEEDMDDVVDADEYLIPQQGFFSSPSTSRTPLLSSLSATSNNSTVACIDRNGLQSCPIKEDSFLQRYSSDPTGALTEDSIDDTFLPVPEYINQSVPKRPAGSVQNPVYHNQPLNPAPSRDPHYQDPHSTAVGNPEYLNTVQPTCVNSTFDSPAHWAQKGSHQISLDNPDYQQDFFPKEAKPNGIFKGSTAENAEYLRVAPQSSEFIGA
Sequence of EGFR wildtype (WT) (P00533 25-1210): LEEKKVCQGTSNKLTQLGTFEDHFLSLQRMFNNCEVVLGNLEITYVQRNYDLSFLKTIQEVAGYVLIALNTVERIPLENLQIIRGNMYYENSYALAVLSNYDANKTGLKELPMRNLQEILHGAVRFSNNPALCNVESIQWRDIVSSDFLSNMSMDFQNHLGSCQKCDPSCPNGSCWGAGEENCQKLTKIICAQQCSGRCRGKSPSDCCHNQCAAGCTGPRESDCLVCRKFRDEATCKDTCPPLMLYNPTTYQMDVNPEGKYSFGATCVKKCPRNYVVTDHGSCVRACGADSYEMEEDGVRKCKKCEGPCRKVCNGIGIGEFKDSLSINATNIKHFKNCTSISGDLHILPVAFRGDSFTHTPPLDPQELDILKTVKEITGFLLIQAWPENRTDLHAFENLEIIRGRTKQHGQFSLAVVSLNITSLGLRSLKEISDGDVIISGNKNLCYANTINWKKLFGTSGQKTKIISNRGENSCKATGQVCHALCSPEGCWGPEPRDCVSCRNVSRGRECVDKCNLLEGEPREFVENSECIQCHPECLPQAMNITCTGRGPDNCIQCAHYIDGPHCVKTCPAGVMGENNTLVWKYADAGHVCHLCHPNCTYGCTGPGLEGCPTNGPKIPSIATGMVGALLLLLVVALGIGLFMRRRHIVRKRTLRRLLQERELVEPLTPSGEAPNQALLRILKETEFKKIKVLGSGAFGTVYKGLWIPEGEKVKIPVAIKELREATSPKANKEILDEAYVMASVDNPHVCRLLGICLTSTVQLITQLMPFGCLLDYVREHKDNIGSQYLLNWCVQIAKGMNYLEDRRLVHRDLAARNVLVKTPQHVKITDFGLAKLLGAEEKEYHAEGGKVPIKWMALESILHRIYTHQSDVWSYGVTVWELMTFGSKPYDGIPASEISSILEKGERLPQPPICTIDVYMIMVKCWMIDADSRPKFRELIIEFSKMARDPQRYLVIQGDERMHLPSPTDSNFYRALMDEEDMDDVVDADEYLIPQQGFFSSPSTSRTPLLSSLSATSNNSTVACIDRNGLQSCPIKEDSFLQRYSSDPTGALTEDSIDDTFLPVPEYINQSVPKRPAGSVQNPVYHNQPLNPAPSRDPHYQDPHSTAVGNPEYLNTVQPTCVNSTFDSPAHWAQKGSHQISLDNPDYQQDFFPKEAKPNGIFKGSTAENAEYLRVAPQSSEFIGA

On to `C[C@]1(O)CC[C@@H](Nc2cc(Nc3ccnc(-c4cnn(S(=O)(=O)C5CC5)c4)n3)ncc2-c2csc(N3CCOCC3)n2)CC1` [Example 120, (1s,4s)-4-((2-((2-(1-(Cyclopropylsulfonyl)-1H-pyrazol-4-yl)pyrimidin-4-yl)amino)-5-(2-morpholinothiazol-4-yl)pyridin-4-yl)amino)-1-methylcyclohexan-1-ol], for which the IC50 at EGFR del19/C797S (setting [1]) was 2.3 nM; at EGFR del19/C797S (setting [2]), 1.4 nM; against EGFR wildtype (WT) (setting [3]) it was above 10000 nM; on EGFR wildtype (WT) (setting [4]) it was 29.7 nM; at EGFR L858R/T790M/C797S (setting [5]) it was 0.9 nM; on EGFR L858R/T790M/C797S (setting [6]), 0.3 nM. In addition, the IC50 was determined as 0.9 nM on EGFR del19/T790M/C797S (setting [7]), 0.6 nM on EGFR del19/T790M/C797S (setting [8]), 41.7 nM on EGFR L858R/C797S (setting [9]) and 3 nM at EGFR L858R/C797S (setting [10]).
For the molecule `O=S(=O)(C1CC1)n1cc(-c2nccc(Nc3cc(NCC4CCC(O)C4)c(-c4ccn(C(F)F)n4)cn3)n2)cn1` (stereo not drawn) [Example 33, 3-(((2-((2-(1-(Cyclopropylsulfonyl)-1H-pyrazol-4-yl)pyrimidin-4-yl)amino)-5-(1-(difluoromethyl)-1H-pyrazol-3-yl)pyridin-4-yl)amino)methyl)cyclopentan-1-ol], the IC50 at EGFR del19/C797S (setting [2]) was 0.5 nM; against EGFR wildtype (WT) (setting [3]), above 10000 nM; on EGFR wildtype (WT) (setting [4]) it was 7 nM; against EGFR L858R/T790M/C797S (setting [5]), 1.4 nM; at EGFR L858R/T790M/C797S (setting [6]), 0.5 nM; at EGFR del19/T790M/C797S (setting [7]), 1 nM. Further, the values for the IC50 on EGFR del19/T790M/C797S (setting [8]), against EGFR L858R/C797S (setting [9]) and at EGFR L858R/C797S (setting [10]) were 0.5 nM, 13.5 nM and 0.7 nM, respectively.
`CC(C)(O)c1nc(-c2cnc(Nc3ccnc(-c4cnn(S(=O)(=O)C5CC5)c4)n3)cc2N[C@H]2CC[C@@H](O)CC2)cs1` [Example 76, (1s,4s)-4-((2-((2-(1-(Cyclopropylsulfonyl)-1H-pyrazol-4-yl)pyrimidin-4-yl)amino)-5-(2-(2-hydroxypropan-2-yl)thiazol-4-yl)pyridin-4-yl)amino)cyclohexan-1-ol]: the IC50 was found to be 0.4 nM on EGFR del19/C797S (setting [1]); 1520 nM against EGFR wildtype (WT) (setting [3]); 2.3 nM against EGFR L858R/T790M/C797S (setting [5]); 0.7 nM at EGFR del19/T790M/C797S (setting [7]); 3 nM against EGFR L858R/C797S (setting [9]).
For `Cc1cc(-c2cnc(Nc3ccnc(-c4cnn(S(=O)(=O)C5CC5)c4)n3)cc2N[C@H]2CC[C@@](C)(O)CC2)nn1C` [Example 291, (1s,4s)-4-((2-((2-(1-(Cyclopropylsulfonyl)-1H-pyrazol-4-yl)pyrimidin-4-yl)amino)-5-(1,5-dimethyl-1H-pyrazol-3-yl)pyridin-4-yl)amino)-1-methylcyclohexan-1-ol], the IC50 against EGFR del19/C797S (setting [1]) was 0.6 nM; on EGFR del19/C797S (setting [2]), 0.2 nM; against EGFR wildtype (WT) (setting [3]), 941 nM; on EGFR wildtype (WT) (setting [4]) it was 0.3 nM; against EGFR L858R/T790M/C797S (setting [5]), 0.3 nM; on EGFR L858R/T790M/C797S (setting [6]), 0.2 nM. Moreover, the IC50 came to 0.4 nM on EGFR del19/T790M/C797S (setting [7]), 0.3 nM at EGFR del19/T790M/C797S (setting [8]) and 0.3 nM on EGFR L858R/C797S (setting [10]).
As to `CC(C)Nc1cc(Nc2ccnc(-c3cnn(S(=O)(=O)C4CC4)c3)n2)ncc1-c1ccn(CC(F)F)n1` [Example 248, N^2-(2-(1-(Cyclopropylsulfonyl)-1H-pyrazol-4-yl)pyrimidin-4-yl)-5-(1-(2,2-difluoroethyl)-1H-pyrazol-3-yl)-N^4-isopropylpyridine-2,4-diamine], the IC50 on EGFR del19/C797S (setting [2]) came out at 14.7 nM; on EGFR wildtype (WT) (setting [4]) it was 286 nM; at EGFR L858R/T790M/C797S (setting [6]), 0.3 nM; on EGFR del19/T790M/C797S (setting [8]), 0.5 nM; on EGFR L858R/C797S (setting [10]), 4.8 nM.
Turning to `CN(C)C[C@H]1CC[C@@H](Nc2cc(Nc3ccnc(-c4cnn(S(=O)(=O)C5CC5)c4)n3)ncc2-c2ccn(CC(F)(F)F)n2)CC1` [Example 266, N^2-(2-(1-(Cyclopropylsulfonyl)-1H-pyrazol-4-yl)pyrimidin-4-yl)-N^4-((1s,4s)-4-((dimethylamino)methyl)cyclohexyl)-5-(1-(2,2,2-trifluoroethyl)-1H-pyrazol-3-yl)pyridine-2,4-diamine], the IC50 was 0.3 nM at EGFR del19/C797S (setting [1]); 206 nM against EGFR wildtype (WT) (setting [3]); 0.1 nM against EGFR L858R/T790M/C797S (setting [5]); 0.1 nM on EGFR del19/T790M/C797S (setting [7]); 0.9 nM on EGFR L858R/C797S (setting [9]).
On to `CC1(O)CCC(Nc2cc(Nc3ccnc(N4CCC(F)(F)C(O)C4)n3)ncc2-c2ccn(C(F)F)n2)CC1` (stereo not drawn) [Example 350, 1-(4-((5-(1-(Difluoromethyl)-1H-pyrazol-3-yl)-4-(((1s,4s)-4-hydroxy-4-methylcyclohexyl)amino)pyridin-2-yl)amino)pyrimidin-2-yl)-4,4-difluoropiperidin-3-ol], for which the IC50 on EGFR del19/C797S (Km ATP, read-out: IC50 del19/C797S, Km ATP) worked out at 95.1 nM; on EGFR wildtype (WT) (Km ATP, read-out: IC50 WT, Km ATP) it was 261 nM; on EGFR L858R/T790M/C797S (Km ATP, read-out: IC50 L858R/T790M/C797S, Km ATP) it was 2.6 nM; at EGFR del19/T790M/C797S (Km ATP, read-out: IC50 del19/T790M/C797S, Km ATP), 4.2 nM; at EGFR L858R/C797S (Km ATP, read-out: IC50 L858R/C797S, Km ATP) it was 117 nM.
`CC1(O)CCC(Nc2cc(Nc3ccnc(-c4cnn(C5CCCCO5)c4)n3)ncc2-c2ccn(C(F)F)n2)CC1` (stereo not drawn) [Example 314, (1s,4s)-4-((5-(1-(Difluoromethyl)-1H-pyrazol-3-yl)-2-((2-(1-(tetrahydro-2H-pyran-2-yl)-1H-pyrazol-4-yl)pyrimidin-4-yl)amino)pyridin-4-yl)amino)-1-methylcyclohexan-1-ol]: the IC50 at EGFR del19/C797S (setting [1]) is 300 nM; on EGFR del19/C797S (setting [2]), 133 nM; against EGFR wildtype (WT) (setting [3]), above 10000 nM; on EGFR wildtype (WT) (setting [4]) it was 595 nM; against EGFR L858R/T790M/C797S (setting [5]), 1.9 nM; at EGFR L858R/T790M/C797S (setting [6]), 0.5 nM. For the same molecule, the IC50 was determined as 5.2 nM against EGFR del19/T790M/C797S (setting [7]), 1.9 nM at EGFR del19/T790M/C797S (setting [8]), 1480 nM at EGFR L858R/C797S (setting [9]) and 75.2 nM at EGFR L858R/C797S (setting [10]).
As for `Cc1nn(S(=O)(=O)N(C)C)cc1-c1nccc(Nc2cc(N[C@H]3CC[C@@](C)(O)CC3)c(-c3ccn(C(F)F)n3)cn2)n1` [Example 315, 4-(4-((5-(1-(Difluoromethyl)-1H-pyrazol-3-yl)-4-(((1s,4s)-4-hydroxy-4-methylcyclohexyl)amino)pyridin-2-yl)amino)pyrimidin-2-yl)-N,N,3-trimethyl-1H-pyrazole-1-sulfonamide], the IC50 on EGFR del19/C797S (setting [1]) is 11 nM; at EGFR del19/C797S (setting [2]), 6.3 nM; on EGFR wildtype (WT) (setting [3]), above 10000 nM; on EGFR wildtype (WT) (setting [4]), 14.2 nM; against EGFR L858R/T790M/C797S (setting [5]), 1.1 nM; at EGFR L858R/T790M/C797S (setting [6]), 0.5 nM. In addition, the IC50 against EGFR del19/T790M/C797S (setting [7]) is 1.9 nM; on EGFR del19/T790M/C797S (setting [8]), 0.6 nM; against EGFR L858R/C797S (setting [9]) it was 37.4 nM; on EGFR L858R/C797S (setting [10]), 5.4 nM.
`COc1ncc(-c2nccc(Nc3cc(N[C@H]4CC[C@@](C)(O)CC4)c(-c4ccn(C(F)F)n4)cn3)n2)cc1F` [Example 178, (1s,4s)-4-((5-(1-(Difluoromethyl)-1H-pyrazol-3-yl)-2-((2-(5-fluoro-6-methoxypyridin-3-yl)pyrimidin-4-yl)amino)pyridin-4-yl)amino)-1-methylcyclohexan-1-ol]: the IC50 is 102 nM at EGFR del19/C797S (setting [2]); 2110 nM on EGFR wildtype (WT) (setting [4]); 16.8 nM on EGFR L858R/T790M/C797S (setting [6]); 46.2 nM on EGFR del19/T790M/C797S (setting [8]); 3 nM at EGFR L858R/C797S (setting [10]).
Regarding `O=S(=O)(C1CC1)n1cc(-c2nccc(Nc3cc(N[C@H]4CC[C@@H](O)CC4)c(-c4cnn(C5CC5)c4)cn3)n2)cn1` [Example 78, (1s,4s)-4-((5-(1-Cyclopropyl-1H-pyrazol-4-yl)-2-((2-(1-(cyclopropylsulfonyl)-1H-pyrazol-4-yl)pyrimidin-4-yl)amino)pyridin-4-yl)amino)cyclohexan-1-ol], the IC50 against EGFR del19/C797S (setting [1]) is 38.5 nM; at EGFR wildtype (WT) (setting [3]), above 10000 nM; against EGFR L858R/T790M/C797S (setting [5]) it was 5.4 nM; on EGFR del19/T790M/C797S (setting [7]), 4.8 nM; against EGFR L858R/C797S (setting [9]) it was 161 nM.

These data come from patent US12258327B2, “5-membered heteroaryl-containing aminopyridine compounds as EGFR inhibitors” (YUHAN CORPORATION, priority 2021, dated 2025).
